{
  "source": "EPA's ToxValDB 9.5 (doi:10.2903/j.efsa.2015.3984)",
  "key": {"Apis mellifera": {"system": "Apis mellifera", "conditions": "acute, duration: 48 hours, mortality"}, "Bibionidae": {"system": "Bibionidae", "conditions": "chronic/long-term; duration: 28 days; development"}, "Canidae": {"system": "Canidae", "conditions": "oral, Dog Other, organ weight"}, "Colinus virginianus": {"system": "Colinus virginianus", "conditions": "reproduction developmental"}, "Coturnix japonica": {"system": "Coturnix japonica", "conditions": "acute, oral"}, "Daphnia magna": {"system": "Daphnia magna", "conditions": "chronic/long-term; duration: 21 days"}, "Lepomis macrochirus": {"system": "Lepomis macrochirus", "conditions": "acute; duration: 96 hours; mortality"}, "Menidia beryllina": {"system": "Menidia beryllina", "conditions": "acute; duration: 96 hours; mortality"}, "Mus musculus": {"system": "Mus musculus", "conditions": "acute; oral; mortality"}, "Oncorhynchus mykiss": {"system": "Oncorhynchus mykiss", "conditions": "mortality"}, "Palaemonetes pugio": {"system": "Palaemonetes pugio", "conditions": "acute; duration: 96 hours; mortality"}, "Rattus norvegicus": {"system": "Rattus norvegicus", "conditions": "chronic"}, "Aphidius rhopalosiphi": {"system": "Aphidius rhopalosiphi", "assay": "LR50; higher = less toxic", "conditions": "acute; duration: 48 hours; mortality"}, "Typhlodromus pyri": {"system": "Typhlodromus pyri", "assay": "LR50; higher = less toxic", "conditions": "chronic/long-term; duration: 7 days; mortality"}},
  "data": [
    {"smiles": "COc1ncc(F)c2nc(S(=O)(=O)Nc3c(F)cccc3F)nn12", "note": "[Florasulam]", "values": [
      {"measurement": "LD50", "setting": "Apis mellifera; dermal", "value": "> 100", "unit": "µg/piece"},
      {"measurement": "LD50", "setting": "Apis mellifera; oral, unspecified", "value": "> 100", "unit": "µg/piece"},
      {"measurement": "NOEC", "setting": "Bibionidae", "value": 10, "unit": "mg/L"},
      {"measurement": "NOAEL", "setting": "Canidae; chronic, duration: 1 years", "value": 5, "unit": "mg/kg-day"},
      {"measurement": "NOAEL", "setting": "Canidae; subchronic, duration: 90 days", "value": 5, "unit": "mg/kg-day"},
      {"measurement": "NOAEL", "setting": "Colinus virginianus", "value": 1500, "unit": "mg/kg-day"},
      {"measurement": "LC50", "setting": "Coturnix japonica; diet", "value": "> 938", "unit": "mg/kg-day"},
      {"measurement": "LD50", "setting": "Coturnix japonica; mortality", "value": 1050, "unit": "mg/kg-day"},
      {"measurement": "NOEC", "setting": "Daphnia magna", "value": 23.4, "unit": "mg/L"},
      {"measurement": "LC50", "setting": "Lepomis macrochirus", "value": "> 100", "unit": "µg/mL"},
      {"measurement": "LC50", "setting": "Menidia beryllina", "value": "> 122", "unit": "µg/mL"},
      {"measurement": "LD50", "setting": "Mus musculus", "value": "> 5000", "unit": "mg/kg-day"},
      {"measurement": "LC50", "setting": "Oncorhynchus mykiss; acute, duration: 96 hours", "value": "> 100", "unit": "µg/mL"},
      {"measurement": "NOEC", "setting": "Oncorhynchus mykiss; chronic/long-term, duration: 28 days", "value": 119, "unit": "mg/L"},
      {"measurement": "LC50", "setting": "Palaemonetes pugio", "value": "> 120", "unit": "µg/mL"},
      {"measurement": "NOAEL", "setting": "Rattus norvegicus", "value": "> 100", "unit": "mg/kg-day"},
      {"measurement": "LC50", "setting": "Tagia sp.; acute, duration: 14 days, mortality", "value": "> 1320", "unit": "mg/kg"},
      {"measurement": "NOEC", "setting": "Tagia sp.; chronic/long-term", "value": 0.203, "unit": "mg/kg"},
      {"measurement": "LR50", "setting": "Aphidius rhopalosiphi", "value": "> 15", "unit": "g/ha"},
      {"measurement": "LR50", "setting": "Typhlodromus pyri", "value": "> 15", "unit": "g/ha"}
    ]}
  ]
}
